Results reported in publication PMC3368261, “Substituted aminopyrimidine protein kinase B (PknB) inhibitors show activity against Mycobacterium tuberculosis” (Bioorganic & Medicinal Chemistry Letters, 2012).
≈ marks a conversion by molar mass, not a printed value. Read-outs that look alike come from different tables or passages of the source.

Key:
PknB = PknB (Mycobacterium tuberculosis, UniProt P9WI81); test: PknB enzyme inhibition, in vitro phosphorylation of the substrate GarA; assay type: biochemical
M. tuberculosis = test: Alamar blue cellular assay against M. tuberculosis (MIC); assay type: cell-based; details: Mycobacterium tuberculosis
physchem = assay type: physicochemical
[1] = system: 76-member human kinase panel; assay type: biochemical; details: 10 μM inhibitor concentration, 76 kinases
[2] = assay conditions described in Ref. [8] (Table 5: Ref. [10]), read-out: PknB IC50

PknB, sequence (P9WI81 whole entry): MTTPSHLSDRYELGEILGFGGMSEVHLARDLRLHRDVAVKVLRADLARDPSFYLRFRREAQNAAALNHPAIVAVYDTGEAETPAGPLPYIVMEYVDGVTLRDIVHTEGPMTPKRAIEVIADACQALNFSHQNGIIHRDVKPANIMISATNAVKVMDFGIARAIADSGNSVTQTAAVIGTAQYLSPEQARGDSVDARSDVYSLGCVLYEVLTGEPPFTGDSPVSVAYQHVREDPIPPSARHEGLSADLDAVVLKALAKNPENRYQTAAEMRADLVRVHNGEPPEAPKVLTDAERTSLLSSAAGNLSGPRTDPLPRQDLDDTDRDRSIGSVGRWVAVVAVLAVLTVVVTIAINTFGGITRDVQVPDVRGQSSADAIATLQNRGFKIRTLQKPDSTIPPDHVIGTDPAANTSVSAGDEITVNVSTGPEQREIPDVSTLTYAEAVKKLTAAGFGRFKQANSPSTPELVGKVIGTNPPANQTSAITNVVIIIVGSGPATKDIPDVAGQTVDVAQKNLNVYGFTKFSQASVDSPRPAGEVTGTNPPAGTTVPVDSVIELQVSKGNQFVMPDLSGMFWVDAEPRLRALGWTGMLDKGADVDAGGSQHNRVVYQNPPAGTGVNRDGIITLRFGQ

Compound | IC50 (PknB; [2]) | MIC (M. tuberculosis) | further results
c1ccc(-c2nc(Nc3cc(C4CC4)[nH]n3)c3ccccc3n2)cc1 [Compound 5e] | 440 nM | – | –
CC(C)CCNc1nccc(Nc2cc(C3CC3)[nH]n2)n1 [Compound 8i] | 354 nM | 63 µM (≈ 18 µg/mL) | –
c1cncc(-c2nccc(Nc3cc(C4CC4)[nH]n3)n2)c1 [Compound 8g] | 202 nM | 125 µM (≈ 34.8 µg/mL) | –
CS(=O)(=O)NCc1ccc(-c2nccc(Nc3cc(C4CC4)[nH]n3)n2)cc1 [Compound 8e] | 241 nM | 63 µM (≈ 24.2 µg/mL) | –
Clc1ccccc1CCNc1nccc(Nc2cc(C3CC3)[nH]n2)n1 [Compound 8l] | 64 nM | 125 µM (≈ 44.4 µg/mL) | –
c1ccc(-c2nc(Nc3cc(C4CC4)[nH]n3)cc(OCCN3CCCC3)n2)cc1 [Compound 11f] | 56 nM | 31 µM (≈ 12.1 µg/mL) | logD (physchem): 3.4
c1cc(Nc2cc(C3CC3)[nH]n2)nc(NC2CCCC2)n1 [Compound 8n] | 115 nM | 63 µM (≈ 17.9 µg/mL) | –
CN1CCC(Nc2cc(Nc3cc(C4CC4)[nH]n3)nc(-c3ccccc3)n2)CC1 [Compound 11d] | 73 nM | 31 µM (≈ 12.1 µg/mL) | logD (physchem): 2.3
CN1CCC(CNc2cc(Nc3cc(C4CC4)[nH]n3)nc(-c3cccc(C#N)c3)n2)CC1 [Compound 15c] | 23 nM | 31 µM (≈ 13.3 µg/mL) | gain in PknB enzyme affinity (PknB): approximately twofold
c1ccc2c(Nc3cc(C4CC4)[nH]n3)nc(NC3CCCCC3)nc2c1 [Compound 5f] | – | – | IC50 (PknB; read-out: PknB IC50): 107 nM
Fc1ccc(-c2nc(Nc3cc[nH]n3)c3ccccc3n2)cc1 [Compound 5b] | 453 nM | – | –
c1ccc2c(Nc3cc(C4CC4)[nH]n3)nc(-c3ccncc3)nc2c1 [Compound 5a] | – | – | improvement in PknB binding affinity (PknB): fourfold improvement in binding affinity; IC50 (PknB; read-out: PknB IC50): 322 nM
CN(C)[C@@H]1CCN(c2cc(Nc3cc(C4CC4)[nH]n3)nc(-c3ccccc3)n2)C1 [Compound 11e] | 53 nM | 16 µM (≈ 6.23 µg/mL) | logD (physchem): 3.8
COc1ccnc(Nc2cc(N3CC[C@@H](N(C)C)C3)nc(-c3ccccc3)n2)c1 [Compound 16b] | 1130 nM | 31 µM (≈ 12.1 µg/mL) | –
CN(C)CCNc1cc(Nc2cc(C3CC3)[nH]n2)nc(-c2cccc(C#N)c2)n1 [Compound 15b] | 39 nM | 63 µM (≈ 24.5 µg/mL) | gain in PknB enzyme affinity (PknB): approximately twofold
CN1CCC(CNc2cc(Nc3cc(C4CC4)[nH]n3)nc(-c3cccc(S(C)(=O)=O)c3)n2)CC1 [Compound 15d] | – | 63 µM (≈ 30.3 µg/mL) | IC50 (PknB; read-out: PknB IC50): 40 nM
CS(=O)(=O)c1cccc(-c2nccc(Nc3cc(C4CC4)[nH]n3)n2)c1 [Compound 8d] | 86 nM | 63 µM (≈ 22.4 µg/mL) | –
NC(=O)c1cccc(-c2nccc(Nc3cc(C4CC4)[nH]n3)n2)c1 [Compound 8b] | 384 nM | 63 µM (≈ 20.2 µg/mL) | –

Compound | IC50 (PknB; [2]) | MIC (M. tuberculosis) | further results
c1ccc2c(Nc3cc(C4CC4)[nH]n3)nc(NCC3CC3)nc2c1 [Compound 5g] | 428 nM | – | –
CN1CCC(CNc2cc(Nc3cc(C4CC4)[nH]n3)nc(-c3ccccc3)n2)CC1 [Compound 11c] | – | 31 µM (≈ 12.5 µg/mL) | IC50 (PknB; read-out: PknB IC50): 55 nM; logD (physchem): 2.3
N#Cc1cccc(-c2nccc(Nc3cc(C4CC4)[nH]n3)n2)c1 [Compound 8f] | – | 125 µM (≈ 37.8 µg/mL) | IC50 (PknB; read-out: PknB IC50): 87 nM
CN(C)CCNc1cc(Nc2cc(C3CC3)[nH]n2)nc(-c2ccccc2)n1 [Compound 11a] | 88 nM | 125 µM (≈ 45.4 µg/mL) | logD (physchem): 3.7
CN(C)[C@@H]1CCN(c2cc(Nc3ccccn3)nc(-c3cccc(C#N)c3)n2)C1 [Compound 16a] | 1990 nM | 31 µM (≈ 11.9 µg/mL) | –
CN(C)[C@@H]1CCN(c2cc(Nc3cc(Cl)ccn3)nc(-c3ccccc3)n2)C1 [Compound 16c] | 176 nM | 8 µM (≈ 3.16 µg/mL) | kinase selectivity against human kinase panel [1]: improvement in selectivity relative to 11e
CN(C)[C@@H]1CCN(c2cc(Nc3cc(C4CC4)[nH]n3)nc(-c3cccc(C#N)c3)n2)C1 [Compound 15a] | 56 nM | 63 µM (≈ 26.1 µg/mL) | –
c1ccc(CNc2nccc(Nc3cc(C4CC4)[nH]n3)n2)cc1 [Compound 8j] | 715 nM | 125 µM (≈ 38.3 µg/mL) | –
Fc1ccc(-c2nccc(Nc3cc(C4CC4)[nH]n3)n2)cc1 [Compound 8a] | 375 nM | > 500 µM | –
CN(C)[C@@H]1CCN(c2cc(Nc3cc(C(F)(F)F)ccn3)nc(-c3cccc(C#N)c3)n2)C1 [Compound 16d] | – | 16 µM (≈ 7.26 µg/mL) | IC50 (PknB; read-out: PknB IC50): 40 nM
Cc1cc(Nc2nc(-c3ccncc3)nc3ccccc23)n[nH]1 [Compound 1] | – | – | IC50 (PknB; high throughput screen, GarA phosphorylation, read-out: PknB inhibition (HTS hit)): 1350 nM
CN1CCN(c2cc(Nc3cc(C4CC4)[nH]n3)nc(-c3ccccc3)n2)CC1 [Compound 11b] | 121 nM | 63 µM (≈ 23.7 µg/mL) | logD (physchem): 3.6
c1cc(Nc2cc(C3CC3)[nH]n2)nc(NCC2CC2)n1 [Compound 8m] | – | 250 µM (≈ 67.6 µg/mL) | IC50 (PknB; read-out: PknB IC50): 217 nM
CS(=O)(=O)Nc1cccc(-c2nccc(Nc3cc(C4CC4)[nH]n3)n2)c1 [Compound 8c] | 393 nM | 31 µM (≈ 11.5 µg/mL) | –
Fc1cccc(CCNc2nccc(Nc3cc(C4CC4)[nH]n3)n2)c1 [Compound 8k] | – | 63 µM (≈ 21.3 µg/mL) | IC50 (PknB; read-out: PknB IC50): 74 nM
Cc1cc(Nc2nc(-c3ccc(F)cc3)nc3ccccc23)n[nH]1 [Compound 5c] | 1160 nM | – | –
Fc1ccc(-c2nc(Nc3cc(C4CC4)[nH]n3)c3ccccc3n2)cc1 [Compound 5d] | 223 nM | – | –
c1cc(Nc2cc(C3CC3)[nH]n2)nc(NC2CCCCC2)n1 [Compound 8h] | 84 nM | 63 µM (≈ 18.8 µg/mL) | –
